Target: recombinant human deoxyuridine nucleotidohydrolase (dUTPase) (Homo sapiens (Human), UniProt P33316)
Experiment: fluorescence-based dUTPase inhibition assay
Assay type: biochemical
Conditions: for % relative inhibition vs. positive control: mean over three concentrations, typically 100, 50 and 25 μmol/L, compared to in-run positive control
From the text: Recombinant human deoxyuridine nucleotidohydrolase (dUTPase) is expressed and purified as described in Ladner R D, Carr S A, Huddleston M J, McNulty D E, Caradonna S J. J Biol Chem. 1996 Mar. 29; 271(13):7752-7. All drugs stocks are aliquoted and diluted as appropriate prior to use. The oligonucelotide primer, templates and fluorophore- and quencher-labeled detection probes are synthesized by Integrated DNA Technologies (Coralville, Iowa), subjected to polyacrylamide gel electrophoresis purification and reconstituted in Omnipur sterile nuclease-free water (EMD Chemicals USA, Gibbstown N.J.) at a stock concentration of 100 μmol/L. The two non-emissive (dark) quenching molecules incorporated into the detection probes include the Iowa black fluorescein quencher (IBFQ; absorption max 531 nm) and ZEN (non-abbreviation; absorption max 532 nm). The fluorescent label utilized is 6-FAM (5′-carboxyfluorescein; excitation max.=494 nm, emission max.=520 nm). Probes are further diluted to a working stock of 10 μmol/L and aliquoted to avoid repeated freeze/thaw cycles. AmpliTaq Gold DNA Polymerase, GeneAmp 10×PCR Buffer 2, MgCl2 and MicroAmp Optical 96-well Reaction Plates are purchased from Applied Biosystems (Carlsbad, Calif.). dNTPs are purchased individually at stock concentrations of 100 mmol/L from New England Biolabs at HPLC-certified >99% purity (Ipswich, Mass.).
Reaction mixtures contained primer, probe and template at an equimolar final concentration of 0.4 μmol/L. Magnesium chloride (MgCl2) is included at a final concentration of 2 mmol/L. Non-limiting dNTPs are included in the reaction mix in excess at a final concentration of 100 μmol/L (dUTP/dTTP is excluded). AmpliTaq Gold DNA polymerase is added at 0.875 U/reaction, 2.5 μl of 10×PCR buffer 2 added and nuclease-free ddH2O added to a final reaction volume of 25 μl. For dUTP inhibition analysis, the volume of ddH2O is further modified to accommodate an additional 1 μl of dUTPase (10 ng/μl) and 1 μl of inhibitor or DMSO control. Thermal profiling and fluorescence detection is performed using a customized thermal program on board a Roche Lightcycler LC480 Instrument II. For analysis of dNTPs, the thermal profile consisted of an 8 min 37° C. step followed by a 10 min 95° C. step to ‘hot-start’ the Taq polymerase and a primer extension time of up to 30 min at 60° C. Raw fluorescence spectra for 6-FAM is measured at specified time intervals to follow assay progression on board a Roche LightCycler 480 Software Version 1.5 and exported and analyzed in Microsoft Excel (Microsoft, Redmond Wash.) and Prism (GraphPad Software, La Jolla Calif.). Fluorescence values for blank reactions (limiting dNTP omitted) are subtracted to give normalized fluorescence units (NFU) to account for background fluorescence.
Test compounds are screened in a fluorescence-based assay. The assay employs a DNA polymerase-based approach utilizing an oligonucleotide template with 3 distinct regions: a 3′ primer binding region, a mid-template dUTP/thymidine triphosphate (TTP) detection region and a 5′ 6-[…] (FAM)-labeled probe binding region that incorporates a black hole quenching moiety. During the reaction, the probe and primer hybridize to the oligonucleotide template to form the template:primer:probe complex. When Taq polymerase binds to the primer in the TPP complex and dUTP is present, successful extension of the nascent strand occurs and the inherent 5′ to 3′ exonuclease activity of Taq polymerase cleaves and displaces the 6-FAM-labeled probe in a 5′ to 3′ direction, releasing the 6-FAM fluorophore from its proximity to the three quenchers. This displacement effectively disrupts the Förster resonance energy transfer (FRET) and the resulting fluorescence detected upon excitation is directly proportional to the amount of the dUTP available in the assay for incorporation. […]

recombinant human deoxyuridine nucleotidohydrolase (dUTPase), sequence (P33316 other isoform, or with tags, fused parts or gaps): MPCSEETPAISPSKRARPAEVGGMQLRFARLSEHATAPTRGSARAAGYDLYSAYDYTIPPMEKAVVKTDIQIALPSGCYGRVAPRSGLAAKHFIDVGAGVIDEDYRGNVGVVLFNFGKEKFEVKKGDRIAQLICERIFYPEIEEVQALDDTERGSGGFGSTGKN

SMILES	% relative inhibition vs. positive control [%]	IC50 [µM]
C[C@@H](NS(=O)(=O)CC/C=C/CC1CC(=O)NC1=O)c1ccc(F)c(OCC2CC2)c1 (stereo partly drawn) [compound 125, (E)-N—((R)-1-(3-(cyclopropylmethoxy)-4-fluorophenyl)ethyl)-5-(2,5-dioxopyrrolidin-3-yl)pent-3-ene-1-sulfonamide]	71	–
C[C@H]1C(=O)NC(=O)N1C/C=C/CCS(=O)(=O)NC1(c2ccc(F)c(OCC(C)(C)O)c2)CC1 [compound 122, (S,E)-N-(1-(4-fluoro-3-(2-hydroxy-2-methylpropoxy)phenyl)cyclopropyl)-5-(5-methyl-2,4-dioxoimidazolidin-1-yl)pent-3-ene-1-sulfonamide]	40	–
C[C@@H](NS(=O)(=O)CCCOCN1CC(=O)NC1=O)c1cccc(OCC2CC2)c1 [Example 115, (R)—N-(1-(3-(cyclopropylmethoxy)phenyl)ethyl)-3-((2,4-dioxoimidazolidin-1-yl)methoxy)propane-1-sulfonamide]	164	–
C[C@@H](NS(=O)(=O)CCCCCN1CC(=O)NC1=O)c1ccc(F)c(OC2CCCC2)c1 [Example 86, (R)—N-(1-(3-(cyclopentyloxy)-4-fluorophenyl)ethyl)-5-(2,4-dioxoimidazolidine-1-yl)pentane-1-sulfonamide]	187	–
C[C@@H](NS(=O)(=O)CCCCCN1CC(=O)NC1=O)c1ccc(F)c(OCC2COC2)c1 [Example 87, (R)-5-(2,4-dioxoimidazolidin-1-yl)-N-(1-(4-fluoro-3-(oxetane-3-ylmethoxy)phenyl)ethyl)pentane-1-sulfonamide]	37	2
C[C@H](c1ccc(F)c(OCC2CC2)c1)N(C)S(=O)(=O)CCCCCN1CC(=O)NC1=O [Example 92, (R)—N-(1-(3-(cyclopropylmethoxy)-4-fluorophenyl)ethyl)-5-(2,4-dioxoimidazolidin-1-yl)-N-methylpentane-1-sulfonamide]	12	6.25
CC(C)COc1cc(C2(NS(=O)(=O)CC/C=C/CN3C(=O)NC(=O)C3(C)C)CC2)ccc1F [118a, (E)-5-(5,5-dimethyl-2,4-dioxoimidazolidin-1-yl)-N-(1-(4-fluoro-3-isobutoxyphenyl)cyclopropyl)pent-3-ene-1-sulfonamide]	19	–
C[C@@H](NS(=O)(=O)CC/C=C/CN1C(=O)NC(=O)C1(C)C)c1ccc(F)c(OCC2CC2)c1 [Example 112, (R,E)-N-(1-(3-(cyclopropylmethoxy)-4-fluorophenyl)ethyl)-5-(5,5-dimethyl-2,4-dioxoimidazolidin-1-yl)pent-3-ene-1-sulfonamide]	50	–
C[C@@H](NS(=O)(=O)CCCCCN1CC(=O)NC1=O)c1ccc(F)c(Oc2ccccc2)c1 [Example 99, (R)-5-(2,4-dioxoimidazolidin-1-yl)-N-(1-(4-fluoro-3-phenoxyphenyl)ethyl)pentane-1-sulfonamide]	60	1.25
C[C@@H](NS(=O)(=O)CCCCCC1(C)NC(=O)NC1=O)c1ccc(F)c(OCC2CC2)c1 (stereo partly drawn) [127b, N—((R)-1-(3-(cyclopropylmethoxy)-4-fluorophenyl)ethyl)-5-(4-methyl-2,5-dioxoimidazolidin-4-yl) pentane-1-sulfonamide]	71	–
C[C@@H](NS(=O)(=O)CCCCCN1CC(=O)N(COCC[Si](C)(C)C)C1=O)c1ccc(F)c(OCC2CC2)c1 [Example 95, (R)—N-(1-(3-(cyclopropylmethoxy)-4-fluorophenyl)ethyl)-5-(2,4-dioxo-3-((2-(trimethylsilyl)ethoxy)methyl)-imidazolidin-1-yl)pentane-1-sulfonamide]	0	> 25
CC(C)COc1cc([C@@H](C)NS(=O)(=O)CCCCCN2C(=O)NC(=O)[C@H]2C)ccc1F [Compound 108b, N—((R)-1-(4-fluoro-3-isobutoxyphenyl)ethyl)-5-((R)-5-methyl-2,4-dioxoimidazolidin-1-yl)pentane-1-sulfonamide]	94	–
C[C@@H](NS(=O)(=O)CCOCCN1CC(=O)NC1=O)c1cccc(OCC2CC2)c1 [Example 114, (R)—N-(1-(3-(cyclopropylmethoxy)phenyl)ethyl)-2-(2-(2,4-dioxoimidazolidin-1-yl)ethoxy)ethane-1-sulfonamide]	124	–
O=C1CN(CCCCCCNS(=O)(=O)c2cccc(OCC3CC3)c2)C(=O)N1 [Example 80, 3-(cyclopropylmethoxy)-N-(6-(2,4-dioxoimidazolidin-1-yl)hexyl)benzenesulfonamide]	151	–
CC(C)COc1cc([C@@H](C)NS(=O)(=O)CCCOCN2CC(=O)NC2=O)ccc1F [Example 116, (R)-3-((2,4-dioxoimidazolidin-1-yl)methoxy)-N-(1-(4-fluoro-3-isobutoxyphenyl)ethyl)propane-1-sulfonamide]	173	–
C[C@@H](NS(=O)(=O)CCCCCN1CC(=O)NC1=O)c1ccc(F)c(OCc2nn[nH]n2)c1 [Example 102, (R)—N-(1-(3-((2H-tetrazol-5-yl)methoxy)-4-fluorophenyl)ethyl)-5-(2,4-dioxoimidazolidin-1-yl)pentane-1-sulfonamide]	0	> 25
C[C@@H](NS(=O)(=O)CCCCCN1CC(=O)NC1=O)c1ccc(F)c(NCC2CC2)c1 [Example 96, (R)—N-(1-(3-((cyclopropylmethyl)amino)-4-fluorophenyl)ethyl)-5-(2,4-dioxoimidazolidin-1-yl)pentane-1-sulfonamide]	19	4
CC(C)COc1cc([C@@H](C)NS(=O)(=O)CCC=CCN2C(=O)NC(=O)C2(C)C)ccc1F [Example 113, (R)-5-(5,5-dimethyl-2,4-dioxoimidazolidin-1-yl)-N-(1-(4-fluoro-3-isobutoxyphenyl)ethyl)pent-3-ene-1-sulfonamide]	8	–
C[C@@H](NS(=O)(=O)CCCOCN1CC(=O)NC1=O)c1ccc(F)c(OC2CCCC2)c1 [Example 85, (R)—N-(1-(3-(cyclopentyloxy)-4-fluorophenyl)ethyl)-3-((2,4-dioxoimidazolidin-1-yl)methoxy)propane-1-sulfonamide]	187	–

Next, values leading:

% relative inhibition vs. positive control [%]	IC50 [µM]	SMILES
153	–	C[C@@H](NS(=O)(=O)CC/C=C/CN1C(=O)NC(=O)[C@@H]1C)c1ccc(F)c(OCC2CC2)c1 [Compound 107a, (E)-N—((R)-1-(3-(cyclopropylmethoxy)-4-fluorophenyl)ethyl)-5-((S)-5-methyl-2,4-dioxoimidazolidin-1-yl)pent-3-ene-1-sulfonamide]
102	–	C[C@H]1C(=O)NC(=O)N1CCCCCS(=O)(=O)NC1(c2cccc(OCC3CC3)c2)CC1 [123b, (S)—N-(1-(3-(cyclopropylmethoxy)phenyl)cyclopropyl)-5-(5-methyl-2,4-dioxoimidazolidin-1-yl)pentane-1-sulfonamide]
105	–	C[C@H]1C(=O)NC(=O)N1C/C=C/CCS(=O)(=O)NC1(c2cccc(OCC3CC3)c2)CC1 [123a, (S,E)-N-(1-(3-(cyclopropylmethoxy)phenyl)cyclopropyl)-5-(5-methyl-2,4-dioxoimidazolidin-1-yl)pent-3-ene-1-sulfonamide]
37	–	C[C@@H](NS(=O)(=O)C/C=C/CCC1(C)NC(=O)NC1=O)c1ccc(F)c(OCC2CC2)c1 (stereo partly drawn) [127a, (E)-N—((R)-1-(3-(cyclopropylmethoxy)-4-fluorophenyl)ethyl)-5-(4-methyl-2,5-dioxoimidazolidin-4-yl) pent-2-ene-1-sulfonamide]

Source: patent publication US10858344B2, “Hydantoin containing deoxyuridine triphosphatase inhibitors” (CV6 Therapeutics (NI) Limited, priority 2016, dated 2020)
